Experimental data from patent publication US7858579B2, “Thermoprotective compositions of pkg pathway inhibitors and method of use thereof” (priority 2005, dated 2010).

Columns and labels:
[1] = tested on: ventilatory pattern generator of the locust, Locusta migratoria; assay: Hyperthermic failure and recovery of locust ventilatory motor pattern; format: in vivo; settings: for thermotolerance of neural function (failure temperature, FIG. 7A): 1 μM KT5823, 1 μM Cantharidin, 40 μM 8-Bromo cGMP
Method: To determine if the thermoprotective consequences of PKG manipulations also apply to central circuitry and motor pattern generation, the thermotolerance of the ventilatory pattern generator was measured (Robertson, R. M. 2004) of the locust, Locusta migratoria. […] Ventilatory arrhythmias (Arr) in untreated animals prior to hyperthermic failure are rarely seen in preparations treated with the PKG inhibitor (FIG. 4.). At failure, temperature was returned to room temperature and time to recovery recorded. Pretreated controls recover after 180.2±42.4 sec whereas KT5823-pretreated animals recover after 62.3±13.4 sec. […] Once ventilatory pattern failure occurs during a temperature ramp, heating was terminated and the motor pattern was monitored until recovery.
Male locusts aged 4-6 weeks were dissected and pinned on a cork board; overlying tissue was removed exposing the metathoracic ganglion. Standard locust saline was superfused and heated at a rate of 5° C./2 min. until motor pattern failure, after which saline was allowed to return to room temperature. Ventilatory motor patterns were monitored using an EMG electrode on muscle 161 in the second abdominal segment. Pressure injection (32±13.5 nL, 10 psi, 150 ms) into the ventilatory neuropil was with a glass microelectrode filled with either 1 μM KT5823 in standard locust saline or locust saline alone (sham treatment) 10 min. (pretreated) before, or during (acutely treated; ˜3 min. before failure in controls) the temperature ramp.
FIGS. 7 to 8 illustate hyperthermic failure of locust ventilatory motor pattern generation. FIG. 8 illustrates sample traces of the ventilatory rhythm recorded from an abdominal expiratory muscle in a control locust. The ventilatory arrhythmias prior to failure should be noted. At failure, temperature was allowed to return to room temperature and time to recovery was recorded. The ventilatory motor pattern after recovery is at a lower frequency than just prior to failure because the temperature is lower. […] Significant differences were found across all groups (ANOVA F(9,105)=13.160, p<0.001). […] Here too significant differences were found across all groups (ANOVA […], p<0.001) N>5 for all treatments. […] Error bars represent SEM.

[2] = tested on: ventilatory pattern generator of the locust, Locusta migratoria; assay: as above; format: in vivo
febrile seizures = settings: intermittent treatment of febrile seizures; cited from earlier work

SMILES: CC12C(=O)OC(=O)C1(C)C1CCC2O1 (stereo not shown) [Cantharidin, Hexahydro-3a,7a-dimethyl-4,7-epoxyisobenzofuran-1,3-dione]
- thermotolerance in HS animals given 8-Bromo cGMP plus Cantharidin ([1]; 1 μM Cantharidin with 40 μM 8-Bromo cGMP, HS animals): counteracted the effect of 8-Bromo cGMP in HS animals thereby inducing maximal thermotolerance
- thermotolerance of neural function (failure temperature, FIG. 7A) [1]: increased the thermotolerance of neural function

SMILES: Nc1ncnc2c1ncn2[C@@H]1O[C@@H]2COP(O)(=S)O[C@H]2[C@H]1O (stereo partly shown) [RP-cAMP]
- failure temperature compared with controls ([1]; PKA inhibitor, data not shown): no significant differences
- recovery time compared with controls ([1]; PKA inhibitor, data not shown): no significant differences

SMILES: COC(=O)[C@@]1(OC)C[C@H]2O[C@]1(C)n1c3ccccc3c3c4c(c5c6ccccc6n2c5c31)C(=O)N(C)C4 [KT5823]
- thermal protection of the circuit, pretreated ([2]; 25 nL of 1 μM injected 10 minutes before increasing temperature): thermoprotection and rapid recovery of the circuit was observed
- thermal protection of the circuit, acutely treated ([2]; one 25 nL dose injected during temperature ramp 3 min. before failure): extremely rapid and equally pronounced thermal protection of the circuit was observed
- time to recovery of ventilatory motor pattern after failure ([2]; pretreated: 25 nL of 1 μM injected into ventilatory neuropil 10 min before temperature ramp, return to room temperature at failure): 62.3 ± 13.4 s
- thermotolerance of neural function (failure temperature, FIG. 7A) [1]: increased the thermotolerance of neural function
- acute effect of injection on ventilatory rhythm frequency, burst duration or duty cycle ([1]; 1 μM pressure injection, data not shown): no acute effect
- preparations with arrhythmias before failure ([1]; during temperature ramp, controls 60%): 11%

SMILES: CN1C(=O)CN=C(c2ccccc2)c2cc(Cl)ccc21 [diazepam]
- reduction in risk per patient year (febrile seizures): 44%

SMILES: Nc1nc2c(nc(Br)n2[C@@H]2O[C@@H]3COP(=O)(O)O[C@H]3[C@H]2O)c(=O)[nH]1 [8-Bromo cGMP, 8-bromo-guanosine 3′,5′-cyclic monophosphate]
- thermotolerance of neural function (failure temperature, FIG. 7A) [1]: did not increase the thermotolerance of the circuit
- effect on protective effects of heat shock preconditioning ([1]; 40 μM, HS animals (3 hr at 45° C.)): abolished the protective effects of heat shock preconditioning
